{
  "source": "patent US12016340B2",
  "about": "“Synergistic antimicrobial formulation consisting of plant extract and lauric arginate” (KALAMAZOO HOLDINGS, INC., priority 2019, dated 2024)",
  "key": {"[1]": {"details": "prior art; cited from earlier work"}, "Z. bailii": {"test_system": "Z. bailii", "test": "Antimicrobial efficacy of emulsions, growth measured by optical density at 600 nm", "format": "cell-based, Zygosaccharomyces bailii", "details": "time course; 45.5 ppm thyme oil and 13 ppm LAE emulsion, or 13 ppm lauric arginate alone; FIG. 4", "procedure": "Antimicrobial efficacy of emulsions of the invention is assessed by back diluting a mid-log phase, overnight culture of Z. bailii 1:100 into fresh acidified (pH 5) yeast peptone dextrose broth and adding the appropriate concentration of emulsion. Emulsions are prepared and tested in duplicate. Controls of lauric arginate are prepared in the same buffer with corn oil substituted for essential oil, at the same concentration. To test thyme oil alone, ethanol is used as a vehicle to solubilize the thyme oil in the microbiological media.\nThe antimicrobial efficacy of the formulations was evaluated against the relevant spoilage organism Z. bailii after 72 hours of incubation, as measured by optical density at 600 nm. See FIG. 3 which compares the growth of Z. bailii under differing conditions. Z. bailii was treated to emulsions comprising 52.5 ppm Thyme oil and 15 ppm lauric arginate (LAE); 52.5 ppm Thyme essential oil alone; or 15 ppm lauric arginate alone. […]\nAdditional studies were conducted in order to ascertain the temporal component of lauric arginate activity. […] Cells are treated to 45.5 ppm Thyme oil and 13 ppm lauric arginate (LAE) emulsion; 45.5 ppm Thyme essential oil alone; or 13 ppm lauric arginate alone, and the OD600 of the cultures were measured over time. […]"}},
  "data": [
    {"smiles": "Cc1ccc(C(C)C)cc1O", "note": "[carvacrol]", "values": [
      {"measurement": "level at which synergy with lauric arginate was reported", "setting": "[1]", "result": 60, "unit": "ppm"}
    ]},
    {"smiles": "CCCCCCCCCCCC(=O)N[C@@H](CCCN=C(N)N)C(=O)OCC", "note": "[lauric arginate, Lauric arginate]", "values": [
      {"measurement": "growth inhibition over time (OD600)", "setting": "Z. bailii", "result": "not inhibitory"}
    ]},
    {"smiles": "Cc1ccc(C(C)C)c(O)c1", "note": "[thymol]", "values": [
      {"measurement": "synergy with lauric arginate", "setting": "[1]", "result": "not to possess synergy"}
    ]}
  ]
}
